From US20200237852A1, “Small Molecule Enhancers of Paneth Cell Function and Differentiation” (Massachusetts Institute of Technology, priority 2019, published 2020)

Assays:
[1] = system: ISC-enriched organoids in ENR+CD; experiment: 384-well primary screen of 6-day PC differentiation, secreted LYZ (LYZ.NS, LYZ.S); assay type: cell-based, C57BL/6 mice; details: 6-day ENR+CD+library treatment; SSMD > 0.997 and z-scored FC > 1.282
Method: This library offers translational advantages as many of the molecules are either presently used in the clinic for a wide variety of conditions or have been used in clinical trials and animal models.
To prepare for “2.5D” plating, cell-laden Matrigel and media were homogenized via mechanical disruption and centrifuged at 300 g for 3 min at 4° C. Supernatant was removed and the pellet washed and spun in basal culture medium repeatedly until the cloudy Matrigel above the cell pellet was gone. On the final wash, pellet was resuspended in basal culture medium, the number of organoids counted, and the cell pellet was resuspended in ENR+CD medium at ˜7 clusters/μL. 384-well plates were first filled with 10 μL of 70% Matrigel (30% basal media) coating in each well using a Tecan Evo 150 Liquid Handling Deck, and allowed to gel at 37° C. for 5 minutes. […] Compound libraries were pinned into prepped cell plates using 50 nL pins into 30 μL media/well. Cells were cultured at 37° C. with 5% CO2 for six days in ENR+CD medium supplemented with the tested compounds with a media change at three days. On day six, lysozyme secretion and cell viability were assessed using Lysozyme Assay Kit (EnzChek) and CellTiter-Glo 3D Cell Viability Assay (Promega), respectively, according to the manufacturers' protocols. […]

[2] = system: ISC-enriched organoids in ENR+CD; experiment: 384-well secondary screen in ENR+CD incl. early vs. full treatment, secreted LYZ (LYZ.NS, LYZ.S); assay type: cell-based, C57BL/6 mice
Source text: We again assessed treatment effect size with replicate SSMD (using a difference between well replicates and median assay value for all same-plate control wells—see Materials and Methods, High-throughput screening: 384-well secondary screen format and early vs. full treatment analysis) and hits were considered statistically validated by an SSMD greater than the false-positive-derived cutoffs (βα1=0.89 for 8 replicates with alpha=0.05; see Materials and Methods, High-throughput screening: 384-well secondary screen format and early vs. full treatment analysis) for both LYZ.NS and LYZ.S assays (FIG. 7A). Per this new cutoff, 10 dose-treatment combinations corresponding to 7 small molecules were chosen as hits, with every passing dose-treatment having a greater than 0 ATP effect size.
For 384-well plate high-throughput screening, ISC-enriched organoids were passaged and split to single cells with TyrpLE (Thermo Fisher Scientific) and cultured for 2-3 days in ENR+CVY prior to transfer to a “2.5-D” 384-well plate culture system. To prepare for “2.5D” plating, cell-laden Matrigel and media were homogenized via mechanical disruption and centrifuged at 300 g for 3 min at 4° C. Supernatant was removed and the pellet washed and spun in basal culture medium repeatedly until the cloudy Matrigel above the cell pellet was gone. On the final wash, pellet was resuspended in basal culture medium, the number of organoids counted, and the cell pellet was resuspended in ENR+CD medium at ˜7 clusters/μL. 384-well plates were first filled with 10 μL of 70% Matrigel (30% basal media) coating in each well using a Tecan Evo 150 Liquid Handling Deck, and allowed to gel at 37° C. for 5 minutes. Then 30 μL of cell-laden media was plated at the center of each well of 384-well plates with the liquid handler, and the plates were spun down at 50 g for 1 minute to embed organoids on the Matrigel surface. Compound libraries were pinned into prepped cell plates using 50 nL pins into 30 μL media/well. Cells were cultured at 37° C. with 5% CO2 for six days in ENR+CD medium supplemented with the tested compounds with a media change at three days. On day six, lysozyme secretion and cell viability were assessed using Lysozyme Assay Kit (EnzChek) and CellTiter-Glo 3D Cell Viability Assay (Promega), respectively, according to the manufacturers' protocols. Briefly, screen plates were washed 3× with FluoroBrite basal media (2 mM GlutaMAX and 10 mM HEPES in FluoroBrite DMEM (Thermo Fisher Scientific)) using a BioTek 406 plate washer with 10 min incubations followed by a 1 min centrifugation at 200 g to settle media between washes. After removal of the third wash, 30 μL of non-stimulated FluoroBrite basal media was added to each screen well using a Tecan Evo 150 Liquid Handling Deck from a non-stimulated treatment master plate, and plates were incubated for 30 min at 37° C. After 30 minutes, the top 15 μL of media from each well of the screen plate was transferred to a non-stimulated LYZ assay plate containing 15 μL of 20× DQ LYZ assay working solution using a Tecan Evo 150 Liquid Handling Deck. The non-stimulated LYZ assay plate was covered, shaken for 10 min, incubated for 50 min at 37° C., then fluorescence measured (shake 10 s; […]/518 nm) using a Tecan M1000 Plate Reader. After the media transfer to the non-stimulated LYZ assay plate, the remaining media was removed from the screen plate and 30 μL of Stimulated FluoroBrite basal media (supplemented with 10 μM CCh) was added to each screen well using a Tecan Evo 150 Liquid Handling Deck from a stimulated treatment master plate, and plates were incubated for 30 min at 37° C. After 30 minutes, the top 15 μL of media from each well of the screen plate was transferred to a stimulated LYZ assay plate containing 15 μL of 20× DQ LYZ assay working solution using a Tecan Evo 150 Liquid Handling Deck. […]

[3] = system: mature PC (CD24-mid & LYZ+) and secretory precursor (CD24-hi) populations; experiment: Flow cytometry profiling of organoids in 2.5-D (CD24, LYZ); assay type: cell-based, C57BL/6 mice; details: 6-day ENR+CD+treatment, fraction of viable cells, n=3 bio. donors
Source text: Cells processed for flow cytometry were first gated to exclude potential debris or doublets (via widely accepted forward and side scatter gating), and subsequently gated for viability (via Zombie-violet viability dye exclusion), all viable cells were considered for CD24 & LYZ expression analysis. […] For flow cytometry profiling of the 6 validate small molecules, ISC-enriched ‘small clusters’ in 3D Matrigel culture were passaged to a “2.5D” 96-well plate culture system for six days of ENR, or ENR+CD+drug culture in the same manner as described previously with the exception of plating in 96-well plates prepared with a polymerized 70% Matrigel coating in each well. Plates were centrifuged at 50 g for 1 min at 4° C. to allow for cells to partially embed in Matrigel coating. Drugs were pinned into their respective wells using the Tecan from a drug stamp plate. Media was changed at day three, including pinning of the drug treatments. At day six, cells were washed 3× with basal media, then harvested from Matrigel by mechanical disruption in TrypLE Express to remove Matrigel and dissociate organoids to single cells. After vigorous pipetting and incubation at 37° C. for 20 mins, dissociated organoids were strained through a 96-well filter plate with a 30-40 μm filter (Pall) into an ultra low-bind 96-well plate (Costar) by centrifuging at 300×g for 3 mins at 4° C. The cell filtrate was centrifuged again at 300×g for 3 mins at 4° C. to pellet the cells. Cell pellets were resuspended in FACS buffer (2% FBS in PBS0), then transferred to an ultra low-bind 96-well plate for flow prep. Cells were stained with Zombie-violet viability dye (BioLegend) at 100× for viability staining and/or antibody staining solution. FITC-conjugated antibody for lysozyme and APC-conjugated antibody for CD24 were used at 100× dilution (BioLegend). Flow cytometry was performed using a LSR Fortessa (BD; Koch Institute Flow Cytometry Core at MIT). Flow cytometry data was analyzed using FlowJo X v10.1 software.

[4] = system: conventional organoid (ENR); experiment: 384-well screen in conventional organoid (ENR), secreted LYZ (LYZ.NS, LYZ.S); assay type: cell-based, C57BL/6 mice; details: 6-day ENR+treatment, single treatment-dose
6-day ENR+CD cells [5] = experiment: Short-term (3-hour) stimulation of LYZ secretion, 2.5-D 96-well platform; assay type: cell-based, murine; details: 3-hour stimulation, across all tested doses
Source text: We first sought to profile the potential short-term actors, IFN-γ, LPS, and CCh, and see if with the added resolution of this first-of-its-kind PC platform, we might be able to determine high-resolution EC50's. To generate sufficient cells for plating out all necessary conditions we first expanded and enriched ISCs in traditional 3-D culture and subsequently differentiated for 4 days towards PCs (ENR+CD). Next, we passaged and plated these cells into 96-well plates as 2.5-D and continued differentiating for an additional 2 days in ENR+CD. On day 6 of differentiation, each well was then washed with basal media repeatedly and stimulated with its respective agent, with a measurement of supernatant LYZ paired to cell pellet ATP (FIG. 2A). This screen was repeated on three separate occasions with cells from three distinct murine donors and analyzed combined. We first wanted to determine the approximate standardized effect size of each treatment at each dose, which was accomplished through the replicate-based strictly standardized mean difference (SSMD), an effect size measure based on the statistics of contrast variables, and particularly useful in screening applications as it is a measure which takes into account both mean difference and variance in a single measure. […] In total, we see that our 2.5-D platform does provide a reasonable system for assessing and screening for potential short-term modulators of PC antimicrobial secretion.
Small intestinal crypts were isolated from C57BL/6 mice of both sexes, aged between three to six months in all experiments. Crypts were then cultured in a Matrigel culture system. Briefly, crypts were resuspended in basal culture medium (Advanced DMEM/F12 with 2 mM GlutaMAX and 10 mM HEPES; Thermo Fisher Scientific) at a 1:1 ratio with Corning™ Matrigel™ Membrane Matrix—GFR (Fisher Scientific) and plated at the center of each well of 24-well plates. […]

6-day ENR+CD cells [6] = experiment: Cell pellet ATP after short-term (3-hour) stimulation, 2.5-D 96-well platform; assay type: cell-based, murine; details: CCh: adj. p<0.01 for 10 and 100 μM doses
Source text: We first sought to profile the potential short-term actors, IFN-γ, LPS, and CCh, and see if with the added resolution of this first-of-its-kind PC platform, we might be able to determine high-resolution EC50's. To generate sufficient cells for plating out all necessary conditions we first expanded and enriched ISCs in traditional 3-D culture and subsequently differentiated for 4 days towards PCs (ENR+CD). Next, we passaged and plated these cells into 96-well plates as 2.5-D and continued differentiating for an additional 2 days in ENR+CD. On day 6 of differentiation, each well was then washed with basal media repeatedly and stimulated with its respective agent, with a measurement of supernatant LYZ paired to cell pellet ATP (FIG. 2A). This screen was repeated on three separate occasions with cells from three distinct murine donors and analyzed combined. We first wanted to determine the approximate standardized effect size of each treatment at each dose, which was accomplished through the replicate-based strictly standardized mean difference (SSMD), an effect size measure based on the statistics of contrast variables, and particularly useful in screening applications as it is a measure which takes into account both mean difference and variance in a single measure. […]

6-day ENR+CD cells [7] = experiment: Long-term (48-hour) modulators of basal and CCh-induced LYZ secretion; assay type: cell-based, murine; details: 48-hour treatment
Source text: We next sought to profile potential long-term modulators of differentiated PC survival and antimicrobial secretion, as well as gauge the interaction between long-term modulators and short-term induced secretion (via CCh). To accomplish this, we employed a similar set up as in the short-term experiment, with the exception that upon plating day 4 ENR+CD cells we additionally supplemented in either MDP, LPS, TNF-α, or IFN-γ for the additional 2 days in culture and assayed all conditions for both basal and CCh-induced LYZ secretion over 3 hours on day 6 of differentiation (FIG. 3A). […] Additionally, we see that the long-term addition reduces CCh-induced secretory function relative to the untreated control for all agents (FIG. 3D).
Small intestinal crypts were isolated from C57BL/6 mice of both sexes, aged between three to six months in all experiments. Crypts were then cultured in a Matrigel culture system. Briefly, crypts were resuspended in basal culture medium (Advanced DMEM/F12 with 2 mM GlutaMAX and 10 mM HEPES; Thermo Fisher Scientific) at a 1:1 ratio with Corning™ Matrigel™ Membrane Matrix—GFR (Fisher Scientific) and plated at the center of each well of 24-well plates. Following Matrigel polymerization, 500 μL of small intestinal crypt culture medium (basal media plus 100× N2 supplement, 50×B27 supplement; Life Technologies, 500× N-acetyl-L-cysteine; Sigma-Aldrich) supplemented with growth factors EGF—E (50 ng/mL, Life Technologies), Noggin—N (100 ng/mL, PeproTech) and R-spondin 1—R (500 ng/mL, PeproTech) and small molecules CHIR99021—C (3 μM, LC Laboratories) and valproic acid—V (1 mM, Sigma-Aldrich) was added to each well. ROCK inhibitor Y-27632—Y (10 μM, R&D Systems) was added for the first 2 days of culture. Cells were cultured at 37° C. with 5% CO2, and cell culture medium was changed every other day. After 6 days of culture, crypt organoids were isolated from Matrigel by mechanical dissociation. To expand enriched ISCs (ENR+CV/Y) or Paneth Cells (ENR+CD), organoids were cultured in 24-well plates, suspended in 40 uL 3-D gels (50-50 GFR MATRIGEL®, Basal culture media), with 500 uL of crypt media supplemented with necessary growth factors and small molecules. ROCK inhibitor (Y) was added for the first two days of ISC culture following reconstitution from cryopreservation or trypLE passaging to single cells. Cell culture medium was changed every other day. After 4 days of culture in ENR+CV, cell clusters were differentiated to PCs under the ENR+CD condition for 96-well short and long-term screens. For 384-well differentiation screens, 4-day ENR+CV clusters were passaged to single cells using trypLE, replated and expanded another 3 days in 3-D ENR+CVY and then passaged directly into screens.
For 96-well plate high-throughput screening, 4-day differentiated (ENR+CD) cell clusters in 3D Matrigel were transferred to a “2.5-D” 96-well plate culture system. Briefly, cell culture gel and medium were homogenized via mechanical disruption and centrifuged at 300 g for 3 min at 4° C. […] On the last repeat, pellet was resuspended in basal culture medium, the number of cell clusters counted, and centrifuged at 300 g for 3 min at 4° C. […] At end time points (following 2 days in culture and 3 hours of stimulation), lysozyme secretion and cell viability were assessed using Lysozyme Assay Kit and CellTiter-Glo 3D Cell Viability Assay (Promega), respectively, according to the manufacturers' protocols. […]

Molecule | primary screen hit status in LYZ.NS and LYZ.S assays [1] | biological potency compared with Bosutinib (LYZ assays) ([2]; 6-day ENR+CD+treatment) | validation in secondary screen (SSMD above cutoff for both LYZ.NS and LYZ.S) ([2]; 6-day ENR+CD+treatment vs ENR+CD+DMSO, cutoff 0.89, 8 replicates) | secretory precursor (CD24-hi) population relative to control [3] | LYZ.S reading versus ENR+DMSO [4] | LYZ.NS/ATP, early versus full treatment ([2]; ENR+CD, 240 nM) | ATP-normalized LYZ assays (LYZ.NS/ATP, LYZ.S/ATP), early versus full treatment ([2]; ENR+CD, across all doses) | SSMD effect size as short-term modulator of LYZ secretion (6-day ENR+CD cells [5]) | effect on cellular ATP (6-day ENR+CD cells [6]) | effect size of reduction of CCh-induced secretory function relative to untreated control (6-day ENR+CD cells [7]; CCh-induced secretion over 3 hours on day 6) | change in basal LYZ secretion (SSMD effect) (6-day ENR+CD cells [7]; basal secretion over 3 hours on day 6)
Cc1cn(-c2cc(NC(=O)c3ccc(C)c(Nc4nccc(-c5cccnc5)n4)c3)cc(C(F)(F)F)c2)cn1 [Nilotinib] | strongest LYZ assay-performing treatment-dose | the more biologically potent | multiple validated doses | higher proportion | significantly lower |  |  |  |  |  | 
NC(=O)c1ccc(-c2nc(-c3ccc4c(c3)OCO4)c(-c3ccccn3)[nH]2)cc1 [SB431542] | strongest LYZ assay-performing treatment-dose |  |  |  |  | significant (adj. p<0.05) difference between early and full treatment | suggestive trend across all doses |  |  |  | 
IFN-γ: cytokine interferon-gamma |  |  |  |  |  |  |  | fairly weak effect sizes | no significant changes in cellular ATP | fairly moderate | moderate increase in secretion
